The record followed here is ChEMBL document CHEMBL5465560, “Selectivity Literature for EUbOPEN Chemogenomic Library” (2024).

Experiment [1] addresses T1, Non-receptor tyrosine-protein kinase TNK1 (Homo sapiens) (UniProt Q13470).
T1 sequence (whole entry): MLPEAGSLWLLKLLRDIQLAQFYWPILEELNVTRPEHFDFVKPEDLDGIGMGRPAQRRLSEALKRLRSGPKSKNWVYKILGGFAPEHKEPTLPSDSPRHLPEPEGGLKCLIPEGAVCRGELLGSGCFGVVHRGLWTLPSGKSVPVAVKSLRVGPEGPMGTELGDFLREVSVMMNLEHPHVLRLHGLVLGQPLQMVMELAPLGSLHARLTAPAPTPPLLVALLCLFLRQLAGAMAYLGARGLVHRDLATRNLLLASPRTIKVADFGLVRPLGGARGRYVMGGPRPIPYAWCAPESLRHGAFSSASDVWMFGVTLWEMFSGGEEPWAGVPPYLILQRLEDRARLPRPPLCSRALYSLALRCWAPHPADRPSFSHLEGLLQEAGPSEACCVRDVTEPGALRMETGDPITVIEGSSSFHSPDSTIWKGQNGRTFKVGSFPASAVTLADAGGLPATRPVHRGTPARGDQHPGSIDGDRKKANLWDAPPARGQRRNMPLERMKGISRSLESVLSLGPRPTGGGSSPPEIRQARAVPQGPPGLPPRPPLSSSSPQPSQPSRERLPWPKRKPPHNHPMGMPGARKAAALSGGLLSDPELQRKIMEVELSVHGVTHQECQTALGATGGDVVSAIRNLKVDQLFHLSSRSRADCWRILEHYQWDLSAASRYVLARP
The experiment in a line: Selectivity interaction (KinomeScan (DiscoverX)) EUB0001079a TNK1. Conditions: at 1 µM.

Experiment [2] has as its target T2, NUAK family SNF1-like kinase 1 (Homo sapiens) (UniProt O60285).
T2 sequence (whole entry): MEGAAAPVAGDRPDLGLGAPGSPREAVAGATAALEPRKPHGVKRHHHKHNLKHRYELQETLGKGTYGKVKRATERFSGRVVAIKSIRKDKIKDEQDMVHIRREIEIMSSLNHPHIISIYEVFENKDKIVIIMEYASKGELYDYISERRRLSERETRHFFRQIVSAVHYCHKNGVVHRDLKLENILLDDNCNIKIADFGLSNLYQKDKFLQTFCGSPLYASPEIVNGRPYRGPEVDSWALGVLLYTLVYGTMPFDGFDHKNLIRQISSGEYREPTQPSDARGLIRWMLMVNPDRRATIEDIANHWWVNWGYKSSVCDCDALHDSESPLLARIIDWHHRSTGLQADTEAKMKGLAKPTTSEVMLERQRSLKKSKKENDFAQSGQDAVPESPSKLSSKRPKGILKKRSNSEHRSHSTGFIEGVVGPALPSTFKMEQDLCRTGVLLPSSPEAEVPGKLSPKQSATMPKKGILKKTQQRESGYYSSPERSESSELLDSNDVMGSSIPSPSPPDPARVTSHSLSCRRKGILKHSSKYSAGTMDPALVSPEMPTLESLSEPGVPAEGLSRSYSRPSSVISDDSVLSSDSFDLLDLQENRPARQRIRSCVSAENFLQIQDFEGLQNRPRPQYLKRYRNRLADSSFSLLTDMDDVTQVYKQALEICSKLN
The experiment in a line: Selectivity interaction (KinomeScan (DiscoverX)) EUB0001049a NUAK1. The following applies: at 1 µM.

For experiment [3], the target named is T3, cGMP-dependent protein kinase 1 (Homo sapiens) (UniProt Q13976).
T3 sequence (whole entry): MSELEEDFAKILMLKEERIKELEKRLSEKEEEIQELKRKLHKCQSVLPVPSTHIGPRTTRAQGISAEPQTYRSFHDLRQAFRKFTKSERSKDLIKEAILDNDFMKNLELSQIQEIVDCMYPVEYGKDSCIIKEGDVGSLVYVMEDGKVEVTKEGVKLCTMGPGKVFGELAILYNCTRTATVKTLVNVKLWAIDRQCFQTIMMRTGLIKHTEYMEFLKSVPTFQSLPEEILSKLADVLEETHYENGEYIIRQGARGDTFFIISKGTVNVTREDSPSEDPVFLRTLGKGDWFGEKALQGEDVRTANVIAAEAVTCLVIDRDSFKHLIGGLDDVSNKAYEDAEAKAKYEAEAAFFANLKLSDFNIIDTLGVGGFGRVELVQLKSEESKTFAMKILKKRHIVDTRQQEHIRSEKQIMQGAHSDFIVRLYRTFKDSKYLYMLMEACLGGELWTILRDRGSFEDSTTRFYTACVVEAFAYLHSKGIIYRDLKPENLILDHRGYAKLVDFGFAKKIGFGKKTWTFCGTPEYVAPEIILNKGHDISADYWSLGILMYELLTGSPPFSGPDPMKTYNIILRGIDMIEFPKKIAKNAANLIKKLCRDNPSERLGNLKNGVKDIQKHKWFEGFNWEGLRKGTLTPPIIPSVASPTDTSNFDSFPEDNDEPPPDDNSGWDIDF
The experiment in a line: Selectivity interaction (KinomeScan (DiscoverX)) EUB0000666a PRKG1. Conditions: at 10 µM.

Experiment [4] deals with T4, Tyrosine-protein kinase receptor TYRO3 (Homo sapiens) (UniProt Q06418).
T4 sequence (whole entry): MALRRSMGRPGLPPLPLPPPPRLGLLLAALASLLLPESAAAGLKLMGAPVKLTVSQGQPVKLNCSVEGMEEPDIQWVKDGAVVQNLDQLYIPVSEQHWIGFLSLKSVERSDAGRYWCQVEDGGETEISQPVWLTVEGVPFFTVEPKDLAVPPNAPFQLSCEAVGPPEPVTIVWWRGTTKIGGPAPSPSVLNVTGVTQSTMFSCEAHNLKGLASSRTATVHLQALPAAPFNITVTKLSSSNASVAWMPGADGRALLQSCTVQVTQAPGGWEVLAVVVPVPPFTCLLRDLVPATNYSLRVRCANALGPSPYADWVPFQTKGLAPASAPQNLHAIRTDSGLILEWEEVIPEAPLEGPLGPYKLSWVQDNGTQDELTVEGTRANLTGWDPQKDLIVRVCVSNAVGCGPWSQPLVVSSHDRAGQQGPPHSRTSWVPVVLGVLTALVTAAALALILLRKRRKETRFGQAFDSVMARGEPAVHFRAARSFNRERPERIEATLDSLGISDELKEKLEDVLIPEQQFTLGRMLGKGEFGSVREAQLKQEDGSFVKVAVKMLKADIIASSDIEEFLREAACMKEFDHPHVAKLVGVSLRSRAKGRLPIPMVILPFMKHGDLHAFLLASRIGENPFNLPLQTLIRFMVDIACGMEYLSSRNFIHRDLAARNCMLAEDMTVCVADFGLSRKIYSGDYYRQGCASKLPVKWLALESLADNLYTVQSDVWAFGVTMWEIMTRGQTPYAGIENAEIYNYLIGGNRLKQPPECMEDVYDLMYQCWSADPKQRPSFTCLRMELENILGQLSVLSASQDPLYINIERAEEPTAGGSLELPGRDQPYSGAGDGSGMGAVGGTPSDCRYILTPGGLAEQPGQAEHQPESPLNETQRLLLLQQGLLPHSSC
As to the kind of experiment: Selectivity interaction (SelectScreen profiling (Invitrogen)) EUB0000607a TYRO3. Conditions: at 2 µM.

The target in experiment [5] is Misshapen-like kinase 1 (Homo sapiens, UniProt Q8N4C8). The experiment in a line: Selectivity interaction (ActivX KiNativ screen (ex vivo kinase selectivity in human PBMCs)) EUB0001619a MINK1. Conditions: PBMC, at 1 µM. In kind it is cell-based.
Sequence of Misshapen-like kinase 1 (Q8N4C8 whole entry, looked up): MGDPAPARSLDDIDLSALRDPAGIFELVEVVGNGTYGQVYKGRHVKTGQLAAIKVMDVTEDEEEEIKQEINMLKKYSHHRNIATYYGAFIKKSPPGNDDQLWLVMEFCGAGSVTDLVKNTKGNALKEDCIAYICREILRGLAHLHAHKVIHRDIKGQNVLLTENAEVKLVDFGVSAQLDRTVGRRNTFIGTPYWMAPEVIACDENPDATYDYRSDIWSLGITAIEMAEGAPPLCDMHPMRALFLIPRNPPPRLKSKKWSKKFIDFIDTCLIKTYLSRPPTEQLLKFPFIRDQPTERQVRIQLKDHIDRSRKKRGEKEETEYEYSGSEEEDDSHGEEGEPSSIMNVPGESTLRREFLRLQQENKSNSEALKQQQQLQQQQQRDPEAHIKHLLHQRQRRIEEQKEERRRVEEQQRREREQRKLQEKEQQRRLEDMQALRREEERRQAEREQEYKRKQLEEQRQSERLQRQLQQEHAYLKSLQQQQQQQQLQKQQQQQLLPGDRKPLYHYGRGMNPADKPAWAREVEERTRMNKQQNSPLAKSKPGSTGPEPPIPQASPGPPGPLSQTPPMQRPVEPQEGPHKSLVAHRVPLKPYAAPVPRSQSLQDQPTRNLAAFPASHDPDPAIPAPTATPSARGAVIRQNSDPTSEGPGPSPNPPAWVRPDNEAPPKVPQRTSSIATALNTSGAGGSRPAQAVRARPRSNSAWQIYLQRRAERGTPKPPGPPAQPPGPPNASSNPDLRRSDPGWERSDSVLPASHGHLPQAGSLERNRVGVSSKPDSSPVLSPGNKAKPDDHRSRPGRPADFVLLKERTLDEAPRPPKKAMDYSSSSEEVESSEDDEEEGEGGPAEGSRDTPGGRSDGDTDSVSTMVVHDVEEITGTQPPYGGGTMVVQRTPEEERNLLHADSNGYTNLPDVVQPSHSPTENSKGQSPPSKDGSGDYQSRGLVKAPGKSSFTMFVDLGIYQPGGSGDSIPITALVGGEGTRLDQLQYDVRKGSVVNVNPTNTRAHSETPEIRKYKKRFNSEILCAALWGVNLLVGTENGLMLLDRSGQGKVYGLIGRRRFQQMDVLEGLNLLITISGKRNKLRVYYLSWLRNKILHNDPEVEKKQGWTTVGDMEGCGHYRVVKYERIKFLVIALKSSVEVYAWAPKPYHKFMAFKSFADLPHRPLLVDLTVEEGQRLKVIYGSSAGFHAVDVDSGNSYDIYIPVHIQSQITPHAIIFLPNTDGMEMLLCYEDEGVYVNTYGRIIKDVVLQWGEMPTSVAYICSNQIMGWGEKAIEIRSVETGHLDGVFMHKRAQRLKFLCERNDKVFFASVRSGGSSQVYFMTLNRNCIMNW

With `Nc1cnc(N2CCc3cc(S(=O)(=O)Nc4c(F)cc(Cl)cc4F)cc(N4CCCC4=O)c32)nc1` [TP-020n], the % of control in experiment [1] was 100%.
On to `COc1cc(Nc2nc(C)cc(-c3cnn4nc(OC)ccc34)n2)cc(C(F)(F)F)c1`, for which, in experiment [2], the % of control was 100%.
`O=C(NOC[C@H](O)CO)c1ccc(F)c(F)c1Nc1ccc(I)cc1F` yielded a % of control in experiment [3] of 100%.
`CNC(=O)Nc1ccc(-c2nc(N3CC4CCC(C3)O4)c3cnn(C4CCC5(CC4)OCCO5)c3n2)cc1`: in experiment [4], the % of inhibition is 9%.
The compound `N#Cc1cccc(-c2c[nH]c3ncnc(N4CCOCC4)c23)c1` registered a % of inhibition in experiment [5] of 15%.
